In US6737383B1, “Herbicidal oxadiazolidines” (priority 1999, dated 2004):

What was measured:
green foxtail = assay: Test E green foxtail; assay type: in vivo, Setaria viridis; conditions: Preemergence
winter barley = assay: Test E winter barley; assay type: in vivo, Hordeum vulgare; conditions: Preemergence
surinam grass = assay: Test B pre/postemergence surinam grass; assay type: in vivo, Brachiaria decumbens
How it was run: (§1)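 Test chemicals in a non-phytotoxic solvent mixture with surfactant were sprayed preemergence onto planted seeds and postemergence onto plants 2 to 18 cm tall (1- to 4-leaf stage). After twelve to sixteen days in a greenhouse, injury was visually rated against untreated controls from 0 (no effect) to 10 (complete control).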

blackgrass [1] = assay: Test E blackgrass; assay type: in vivo, Alopecurus myosuroides; conditions: Preemergence
blackgrass [2] = assay: Test B pre/postemergence blackgrass; assay type: in vivo, Alopecurus myosuroides
How it was run: as §1

wild oat = assay: Test E wild oat; assay type: in vivo, Avena fatua; conditions: Preemergence
bedstraw = assay: Test B pre/postemergence bedstraw; assay type: in vivo, Galium aparine; conditions: Preemergence; for Bedstraw plant response rating: scale of 0 to 10 where 0 is no effect and 10 is complete control
How it was run: as §1

smallflower flatsedge = assay: Test B flood test smallflower flatsedge; assay type: in vivo, Cyperus difformis
How it was run: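 Flood test on plants grown to the 2-leaf stage; treated plants kept in greenhouse twelve to sixteen days, then visually rated against controls on a 0 (no effect) to 10 (complete control) scale.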

winter wheat [3] = assay: Test E winter wheat; assay type: in vivo, Triticum aestivum; conditions: Preemergence
Italian ryegrass = assay: Test E Italian ryegrass; assay type: in vivo, Lolium multiflorum; conditions: Preemergence
winter wheat [4] = assay: Test E winter wheat; assay type: in vivo, Triticum aestivum; conditions: Postemergence, 0 to 100 scale, 0 is no effect, 100 is complete control
How it was run: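 Compound formulated with surfactant in a non-phytotoxic solvent (postemergence: young 1- to 4-leaf plants); held in greenhouse approx. 21–28 days; visual assessment against untreated plants.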

[5] = Rate 125 g/ha, 0 to 100 scale (0 no effect, 100 complete control)
[6] = Rate 500 g/ha, 0 to 100 scale (0 no effect, 100 complete control)
[7] = Postemergence, Rate 125 g/ha, scale 0 to 10, 0 is no effect, 10 is complete control
[8] = Preemergence, Rate 62 g/ha, scale 0 to 10 (0 no effect, 10 complete control)
[9] = Preemergence, Rate 250 g/ha, scale of 0 to 10 where 0 is no effect and 10 is complete control
[10] = Preemergence, Rate 500 g/ha, scale of 0 to 10 where 0 is no effect and 10 is complete control
[11] = Rate 62 g/ha, Postemergence, scale of 0 to 10 where 0 is no effect and 10 is complete control
[12] = Rate 250 g/ha, Postemergence, scale of 0 to 10 where 0 is no effect and 10 is complete control
[13] = Rate 500 g/ha, Postemergence, scale 0 to 10, 0 no effect, 10 complete control

CC(C)N(C(=O)n1oc(=O)n(C2CCC2)c1=O)c1ccc(F)cc1 [Compound 350]
Plant response rating, Green foxtail (green foxtail; [5]): 65
Plant response rating, Green foxtail (green foxtail; Rate 250 g/ha, 0 to 100 scale): 55
Plant response rating, Green foxtail (green foxtail; [6]): 85
Plant response rating, Barley (winter) (winter barley; [5]): 5
Plant response rating, Barley (winter) (winter barley; Rate 250 g/ha, 0 to 100 scale, 0 no effect, 100 complete control): 10
Plant response rating, Barley (winter) (winter barley; [6]): 25
Plant response rating, B. signalgrass (surinam grass; [7]): 0
Plant response rating, B. signalgrass (surinam grass; [8]): 0
B. signalgrass plant response rating (0 to 10 scale, 0 is no effect, 10 is complete control) (surinam grass; Preemergence, Rate 125 g/ha): 0
B. signalgrass plant response rating (surinam grass; [9]): 2
B. signalgrass plant response rating (surinam grass; [10]): 4
B. signalgrass plant response rating (surinam grass; [11]): 0
Plant response rating, B. signalgrass (surinam grass; [12]): 0
Plant response rating, B. signalgrass (surinam grass; [13]): 4
Plant response rating, Blackgrass (blackgrass [1]; [5]): 50
Plant response rating, Blackgrass (blackgrass [1]; Rate 250 g/ha, 0 to 100 scale): 30
Plant response rating, Blackgrass (blackgrass [1]; [6]): 60
Plant response rating, Blackgrass (blackgrass [2]; [7]): 4
Plant response rating, Blackgrass (blackgrass [2]; [8]): 4
Blackgrass plant response rating (0 to 10 scale) (blackgrass [2]; Preemergence, Rate 125 g/ha): 5
Blackgrass plant response rating (blackgrass [2]; [9]): 8
Blackgrass plant response rating (blackgrass [2]; [10]): 8
Blackgrass plant response rating (blackgrass [2]; [11]): 4
Plant response rating, Blackgrass (blackgrass [2]; [12]): 7
Plant response rating, Blackgrass (blackgrass [2]; [13]): 7
Plant response rating, Wild oat (wild oat; [5]): 40
Plant response rating, Wild oat (wild oat; Rate 250 g/ha, 0 to 100 scale): 60
Plant response rating, Wild oat (wild oat; [6]): 65
Plant response rating, Bedstraw (bedstraw; Rate 62 g/ha, scale 0 to 10 (0 no effect, 10 complete control)): 10
Bedstraw plant response rating (0 to 10 scale) (bedstraw; Rate 125 g/ha): 10
Bedstraw plant response rating (bedstraw; Rate 250 g/ha): 10
Bedstraw plant response rating (bedstraw; Rate 500 g/ha): 10
Plant response rating, S. Flatsedge (smallflower flatsedge; Postemergence (flood test), Rate 125 g/ha, scale 0 to 10, 0 is no effect, 10 is complete control): 2
S. Flatsedge plant response rating (smallflower flatsedge; Rate 62 g/ha, Postemergence (flood test species), scale of 0 to 10 where 0 is no effect and 10 is complete control): 0
Plant response rating, S. Flatsedge (0 to 10 scale, 0 is no effect, 10 is complete control) (smallflower flatsedge; Rate 62 g/ha, flood test species, Pre-emergence, visual evaluation after twelve to sixteen days): 0
S. Flatsedge plant response rating (smallflower flatsedge; Rate 125 g/ha, Pre-emergence, flood test species, scale 0 to 10 where 0 is no effect and 10 is complete control): 0
S. Flatsedge plant response rating (smallflower flatsedge; Rate 250 g/ha, Pre-emergence, flood-test species, scale 0 to 10, 0 is no effect, 10 is complete control): 0
Plant response rating, S. Flatsedge (smallflower flatsedge; Rate 500 g/ha, listed under Postemergence (flood test species), scale 0 to 10, 0 no effect, 10 complete control): 8
S. Flatsedge plant response rating (smallflower flatsedge; Rate 500 g/ha, Pre-emergence, flood test species, scale 0 to 10 (0 no effect, 10 complete control)): 0
Plant response rating, Wheat (winter) (winter wheat [3]; [5]): 40
Plant response rating, Wheat (winter) (winter wheat [3]; Rate 250 g/ha, 0 to 100 scale): 40
Plant response rating, Wheat (winter) (winter wheat [3]; [6]): 50
Plant response rating, I. Ryegrass (Italian ryegrass; [5]): 60
Plant response rating, I. Ryegrass (Italian ryegrass; Rate 250 g/ha, 0 to 100 scale): 90
Plant response rating, I. Ryegrass (Italian ryegrass; [6]): 85
Plant response rating, Wheat (winter) (winter wheat [4]; Rate 125 g/ha): 50
Plant response rating, Wheat (winter) (winter wheat [4]; Rate 250 g/ha): 30
Plant response rating, Wheat (winter) (winter wheat [4]; Rate 500 g/ha): 40
